Tests used:
Assay in all cases: pIC50, kinobeads binding competition
CDKL5 = target: T1, CDKL5 (UniProt O76039)
T1 sequence (whole entry): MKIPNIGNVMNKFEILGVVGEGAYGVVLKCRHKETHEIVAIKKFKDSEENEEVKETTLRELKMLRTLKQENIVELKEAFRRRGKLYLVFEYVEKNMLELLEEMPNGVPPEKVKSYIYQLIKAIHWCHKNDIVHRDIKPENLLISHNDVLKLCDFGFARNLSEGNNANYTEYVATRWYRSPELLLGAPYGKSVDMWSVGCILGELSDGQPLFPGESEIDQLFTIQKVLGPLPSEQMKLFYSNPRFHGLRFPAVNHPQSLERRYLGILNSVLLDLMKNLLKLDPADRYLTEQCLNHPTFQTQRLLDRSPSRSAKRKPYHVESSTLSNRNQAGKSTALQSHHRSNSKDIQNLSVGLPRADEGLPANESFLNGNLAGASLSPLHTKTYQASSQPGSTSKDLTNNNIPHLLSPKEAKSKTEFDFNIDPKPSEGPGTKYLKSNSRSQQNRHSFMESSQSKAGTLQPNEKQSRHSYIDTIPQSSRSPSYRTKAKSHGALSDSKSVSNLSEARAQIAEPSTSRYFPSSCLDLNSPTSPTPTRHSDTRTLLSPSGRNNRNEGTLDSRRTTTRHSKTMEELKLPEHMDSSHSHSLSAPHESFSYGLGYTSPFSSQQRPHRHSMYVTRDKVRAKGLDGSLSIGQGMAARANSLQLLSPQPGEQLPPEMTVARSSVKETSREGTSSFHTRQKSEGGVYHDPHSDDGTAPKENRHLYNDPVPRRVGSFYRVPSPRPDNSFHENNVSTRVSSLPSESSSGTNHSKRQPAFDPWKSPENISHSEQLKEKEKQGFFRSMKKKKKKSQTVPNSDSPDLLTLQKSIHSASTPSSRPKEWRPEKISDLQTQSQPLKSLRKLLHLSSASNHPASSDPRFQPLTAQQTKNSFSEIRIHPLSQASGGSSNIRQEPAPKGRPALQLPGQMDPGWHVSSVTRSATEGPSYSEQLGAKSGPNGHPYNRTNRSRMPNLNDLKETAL
Summary of the method: (§1)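 Nine compound concentrations were tested, starting at 30 μM in 1:4 steps on live Jurkat cells (60 min, 37 °C, then lysis) or in 1:5 steps on Jurkat lysate or a 1:1:1:1 HEK293/K-562/HepG2/placenta lysate mix (60 min, 4 °C). Kinobeads-bound proteins were digested and quantified with TMT10 LC-MS/MS. pIC50 values are from logistic dose-response fits in the R drc package of fold changes relative to vehicle, from biological duplicates.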

CSK = CSK (UniProt P41240)
Summary of the method: as §1

MAP3K4 = MAP3K4 (UniProt Q9Y6R4)
Summary of the method: as §1

MAP4K4 = MAP4K4 (UniProt O95819)
Summary of the method: as §1

MARK4 = target: T2, MARK4 (UniProt Q96L34)
T2 sequence (whole entry): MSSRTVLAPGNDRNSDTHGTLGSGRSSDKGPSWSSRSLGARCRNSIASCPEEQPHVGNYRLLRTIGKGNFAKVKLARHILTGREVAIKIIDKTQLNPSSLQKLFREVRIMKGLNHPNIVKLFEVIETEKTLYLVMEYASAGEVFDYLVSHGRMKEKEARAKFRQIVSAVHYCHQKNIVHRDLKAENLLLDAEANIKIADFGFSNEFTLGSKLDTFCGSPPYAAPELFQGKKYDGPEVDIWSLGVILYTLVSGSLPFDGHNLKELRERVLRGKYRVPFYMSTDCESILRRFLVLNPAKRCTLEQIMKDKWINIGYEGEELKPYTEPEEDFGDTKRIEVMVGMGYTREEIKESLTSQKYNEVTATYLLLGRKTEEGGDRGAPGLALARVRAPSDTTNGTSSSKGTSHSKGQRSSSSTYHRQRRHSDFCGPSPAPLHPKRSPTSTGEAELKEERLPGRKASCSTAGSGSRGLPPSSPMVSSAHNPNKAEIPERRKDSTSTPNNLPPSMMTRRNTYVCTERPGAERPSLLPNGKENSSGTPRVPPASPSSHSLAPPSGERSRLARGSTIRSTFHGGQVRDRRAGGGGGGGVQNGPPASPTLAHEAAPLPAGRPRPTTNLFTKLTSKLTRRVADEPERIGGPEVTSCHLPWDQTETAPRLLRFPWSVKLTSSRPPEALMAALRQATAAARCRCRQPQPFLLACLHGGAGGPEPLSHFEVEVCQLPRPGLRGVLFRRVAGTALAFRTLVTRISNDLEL
Summary of the method: as §1

UniProt Q9HBH9 = target: UniProt Q9HBH9
Summary of the method: as §1

UniProt Q9UEE5 = target: T3, UniProt Q9UEE5
T3 sequence (whole entry): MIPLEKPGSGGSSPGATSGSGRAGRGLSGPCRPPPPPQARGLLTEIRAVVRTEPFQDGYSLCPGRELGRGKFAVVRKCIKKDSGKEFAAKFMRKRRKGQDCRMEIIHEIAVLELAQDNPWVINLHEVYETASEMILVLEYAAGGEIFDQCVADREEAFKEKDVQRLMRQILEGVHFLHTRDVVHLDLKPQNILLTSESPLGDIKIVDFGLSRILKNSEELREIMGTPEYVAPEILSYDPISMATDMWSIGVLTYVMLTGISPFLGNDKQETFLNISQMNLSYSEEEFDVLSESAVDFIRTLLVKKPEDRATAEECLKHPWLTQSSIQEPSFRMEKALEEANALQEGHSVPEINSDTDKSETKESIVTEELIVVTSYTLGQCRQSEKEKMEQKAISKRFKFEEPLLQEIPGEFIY
Summary of the method: as §1

Chain of MAP3K4 (Q9Y6R4 whole entry): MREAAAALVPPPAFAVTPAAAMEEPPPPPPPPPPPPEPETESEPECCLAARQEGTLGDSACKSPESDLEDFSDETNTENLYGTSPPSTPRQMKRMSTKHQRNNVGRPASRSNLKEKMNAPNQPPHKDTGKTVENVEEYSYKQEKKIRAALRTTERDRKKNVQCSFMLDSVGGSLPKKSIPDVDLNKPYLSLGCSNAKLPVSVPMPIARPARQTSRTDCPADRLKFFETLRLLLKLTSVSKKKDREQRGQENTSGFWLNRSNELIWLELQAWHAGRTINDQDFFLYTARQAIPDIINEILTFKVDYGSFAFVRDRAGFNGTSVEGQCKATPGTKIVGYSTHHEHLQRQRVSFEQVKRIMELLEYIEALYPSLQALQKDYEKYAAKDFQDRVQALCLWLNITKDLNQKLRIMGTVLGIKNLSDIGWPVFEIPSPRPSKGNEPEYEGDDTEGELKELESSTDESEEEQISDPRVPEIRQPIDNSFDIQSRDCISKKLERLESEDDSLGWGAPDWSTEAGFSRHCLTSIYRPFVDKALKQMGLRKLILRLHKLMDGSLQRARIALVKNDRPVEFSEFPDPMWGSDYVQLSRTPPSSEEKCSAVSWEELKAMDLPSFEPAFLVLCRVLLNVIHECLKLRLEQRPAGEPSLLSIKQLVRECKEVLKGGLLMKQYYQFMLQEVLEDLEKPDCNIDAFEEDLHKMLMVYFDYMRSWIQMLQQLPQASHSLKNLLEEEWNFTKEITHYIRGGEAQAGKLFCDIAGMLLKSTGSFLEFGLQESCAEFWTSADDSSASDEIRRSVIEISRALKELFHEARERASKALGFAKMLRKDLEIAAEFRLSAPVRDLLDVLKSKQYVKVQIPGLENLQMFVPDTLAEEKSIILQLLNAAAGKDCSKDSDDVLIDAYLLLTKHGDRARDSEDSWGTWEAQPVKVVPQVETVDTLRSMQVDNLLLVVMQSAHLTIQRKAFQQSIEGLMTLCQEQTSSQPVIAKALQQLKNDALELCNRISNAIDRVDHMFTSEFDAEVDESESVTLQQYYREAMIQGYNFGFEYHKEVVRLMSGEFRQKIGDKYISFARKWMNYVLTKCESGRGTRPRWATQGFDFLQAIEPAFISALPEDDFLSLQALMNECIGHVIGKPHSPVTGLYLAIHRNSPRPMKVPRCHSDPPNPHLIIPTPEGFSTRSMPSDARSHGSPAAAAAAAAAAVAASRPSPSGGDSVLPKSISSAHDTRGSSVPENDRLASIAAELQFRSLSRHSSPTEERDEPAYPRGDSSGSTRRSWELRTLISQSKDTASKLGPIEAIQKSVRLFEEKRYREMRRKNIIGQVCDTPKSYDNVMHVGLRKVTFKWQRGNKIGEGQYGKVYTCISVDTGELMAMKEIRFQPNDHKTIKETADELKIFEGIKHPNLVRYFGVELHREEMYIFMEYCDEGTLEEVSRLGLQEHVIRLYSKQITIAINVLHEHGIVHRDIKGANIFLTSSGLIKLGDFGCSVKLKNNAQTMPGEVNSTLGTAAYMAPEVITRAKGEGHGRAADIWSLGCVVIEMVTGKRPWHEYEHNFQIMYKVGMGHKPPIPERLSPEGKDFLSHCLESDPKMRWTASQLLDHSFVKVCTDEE
Chain of MAP4K4 (O95819 whole entry, looked up): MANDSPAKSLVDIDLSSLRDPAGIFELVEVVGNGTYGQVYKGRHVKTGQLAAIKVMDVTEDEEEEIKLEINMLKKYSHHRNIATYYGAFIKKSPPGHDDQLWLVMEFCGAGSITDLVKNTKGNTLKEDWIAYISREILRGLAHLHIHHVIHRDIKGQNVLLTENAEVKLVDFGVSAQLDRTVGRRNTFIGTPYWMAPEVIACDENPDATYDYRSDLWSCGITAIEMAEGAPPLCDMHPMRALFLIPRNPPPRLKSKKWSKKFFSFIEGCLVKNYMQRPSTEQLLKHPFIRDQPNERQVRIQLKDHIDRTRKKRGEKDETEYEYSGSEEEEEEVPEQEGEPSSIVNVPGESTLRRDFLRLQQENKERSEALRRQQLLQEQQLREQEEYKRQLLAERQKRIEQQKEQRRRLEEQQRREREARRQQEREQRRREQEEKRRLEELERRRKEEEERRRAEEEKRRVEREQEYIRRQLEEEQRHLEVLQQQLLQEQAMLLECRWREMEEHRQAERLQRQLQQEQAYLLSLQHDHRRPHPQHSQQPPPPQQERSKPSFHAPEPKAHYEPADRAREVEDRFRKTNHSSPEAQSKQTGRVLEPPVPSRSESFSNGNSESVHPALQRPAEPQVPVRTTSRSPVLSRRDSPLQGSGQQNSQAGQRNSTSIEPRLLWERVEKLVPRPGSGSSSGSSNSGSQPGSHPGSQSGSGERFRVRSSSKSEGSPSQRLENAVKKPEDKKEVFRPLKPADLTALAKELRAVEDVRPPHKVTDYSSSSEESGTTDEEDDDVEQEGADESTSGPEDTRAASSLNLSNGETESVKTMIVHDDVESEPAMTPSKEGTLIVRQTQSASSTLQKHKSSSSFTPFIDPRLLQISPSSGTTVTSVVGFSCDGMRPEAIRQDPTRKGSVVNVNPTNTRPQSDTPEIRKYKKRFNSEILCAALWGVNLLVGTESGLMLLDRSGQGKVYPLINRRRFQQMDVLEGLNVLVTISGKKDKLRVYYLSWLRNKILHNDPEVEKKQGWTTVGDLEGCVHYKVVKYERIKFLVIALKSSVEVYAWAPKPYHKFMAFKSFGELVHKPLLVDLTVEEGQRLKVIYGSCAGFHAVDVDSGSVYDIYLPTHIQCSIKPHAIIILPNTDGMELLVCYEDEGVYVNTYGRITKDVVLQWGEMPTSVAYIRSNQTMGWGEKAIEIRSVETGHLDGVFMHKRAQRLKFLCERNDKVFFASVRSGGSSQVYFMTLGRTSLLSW
Chain of UniProt Q9HBH9 (Q9HBH9 whole entry, looked up): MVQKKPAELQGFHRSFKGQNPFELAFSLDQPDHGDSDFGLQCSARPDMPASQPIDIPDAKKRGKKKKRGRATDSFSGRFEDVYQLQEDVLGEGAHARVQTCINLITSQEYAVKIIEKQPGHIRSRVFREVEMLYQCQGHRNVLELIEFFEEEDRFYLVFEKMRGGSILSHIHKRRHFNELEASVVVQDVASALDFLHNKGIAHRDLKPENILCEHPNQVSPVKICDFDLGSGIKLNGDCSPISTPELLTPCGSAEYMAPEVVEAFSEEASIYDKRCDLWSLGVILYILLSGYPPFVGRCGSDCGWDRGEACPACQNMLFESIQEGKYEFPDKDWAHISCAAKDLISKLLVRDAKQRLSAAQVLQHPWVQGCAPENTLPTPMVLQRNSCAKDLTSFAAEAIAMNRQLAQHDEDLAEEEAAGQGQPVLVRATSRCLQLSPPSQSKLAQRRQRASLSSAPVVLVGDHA

Row | pIC50 (CDKL5; cell material: Lysate mix) | pIC50 (CSK; cell material: Lysate mix) | pIC50 (MAP3K4; cell material: Lysate mix) | pIC50 (MAP4K4; cell material: Lysate mix) | pIC50 (MARK4; cell material: Lysate mix) | pIC50 (UniProt Q9HBH9; cell material: Lysate mix) | pIC50 (UniProt Q9UEE5; cell material: Lysate mix) | Compound | pIC50 (CDKL5; cell material: Jurkat lysate) | pIC50 (CSK; cell material: Jurkat cells) | pIC50 (CSK; cell material: Jurkat lysate) | pIC50 (MAP3K4; cell material: Jurkat cells) | pIC50 (MAP3K4; cell material: Jurkat lysate) | pIC50 (MAP4K4; cell material: Jurkat cells) | pIC50 (MAP4K4; cell material: Jurkat lysate) | pIC50 (MARK4; cell material: Jurkat cells) | pIC50 (MARK4; cell material: Jurkat lysate) | pIC50 (UniProt Q9HBH9; cell material: Jurkat lysate) | pIC50 (UniProt Q9UEE5; cell material: Jurkat lysate) | pIC50 (CDKL5; cell material: Jurkat cells) | pIC50 (UniProt Q9HBH9; cell material: Jurkat cells) | pIC50 (UniProt Q9UEE5; cell material: Jurkat cells)
1 | 5.11 | < 4.52 | 4.8 | < 4.52 | < 4.52 | < 4.52 | < 4.52 | CCNC(=O)c1cc(Nc2cc(C)[nH]n2)nc(N2CCN(Cc3ccc(S(=O)(=O)F)cc3)CC2)n1 | – | – | – | – | – | – | – | – | – | – | – | – | – | –
2 | 5.23 | < 4.52 | 4.88 | < 4.52 | < 4.52 | < 4.52 | < 4.52 | C#CCNC(=O)c1cc(Nc2cc(C)[nH]n2)nc(N2CCN(Cc3ccc(S(=O)(=O)F)cc3)CC2)n1 | – | – | – | – | – | – | – | – | – | – | – | – | – | –

Second part, the molecule before the results:

Row | Compound | pIC50 (CDKL5; cell material: Lysate mix) | pIC50 (CSK; cell material: Lysate mix) | pIC50 (MAP3K4; cell material: Lysate mix) | pIC50 (MAP4K4; cell material: Lysate mix) | pIC50 (MARK4; cell material: Lysate mix) | pIC50 (UniProt Q9HBH9; cell material: Lysate mix) | pIC50 (UniProt Q9UEE5; cell material: Lysate mix) | pIC50 (CDKL5; cell material: Jurkat lysate) | pIC50 (CSK; cell material: Jurkat cells) | pIC50 (CSK; cell material: Jurkat lysate) | pIC50 (MAP3K4; cell material: Jurkat cells) | pIC50 (MAP3K4; cell material: Jurkat lysate) | pIC50 (MAP4K4; cell material: Jurkat cells) | pIC50 (MAP4K4; cell material: Jurkat lysate) | pIC50 (MARK4; cell material: Jurkat cells) | pIC50 (MARK4; cell material: Jurkat lysate) | pIC50 (UniProt Q9HBH9; cell material: Jurkat lysate) | pIC50 (UniProt Q9UEE5; cell material: Jurkat lysate) | pIC50 (CDKL5; cell material: Jurkat cells) | pIC50 (UniProt Q9HBH9; cell material: Jurkat cells) | pIC50 (UniProt Q9UEE5; cell material: Jurkat cells)
3 | O=C(NCCNC(=O)c1cc(Nc2cc(C3CC3)[nH]n2)nc(N2CCN(Cc3ccc(S(=O)(=O)F)cc3)CC2)n1)OC1CC/C=C/CCC1 (stereo unspecified) | 5.12 | < 4.52 | < 4.52 | < 4.52 | < 4.52 | < 4.52 | < 4.52 | 4.89 | < 4.52 | < 4.52 | 5.96 | < 4.52 | 5.15 | < 4.52 | 5.44 | < 4.52 | < 4.52 | < 4.52 | – | – | –
4 | Cc1cc(Nc2cc(C(=O)NCCNC(=O)OC3CC/C=C/CCC3)nc(N3CCN(Cc4ccc(S(=O)(=O)F)cc4)CC3)n2)n[nH]1 (stereo unspecified) | < 4.52 | < 4.52 | < 4.52 | < 4.52 | < 4.52 | < 4.52 | < 4.52 | – | – | – | – | – | – | – | – | – | – | – | – | – | –
5 | CCNC(=O)c1cc(Nc2cc(C3CC3)[nH]n2)nc(N2CCN(Cc3ccc(S(=O)(=O)F)cc3)CC2)n1 | 6.16 | < 4.52 | 5.61 | < 4.52 | 4.93 | < 4.52 | < 4.52 | – | – | – | – | – | – | – | – | – | – | – | – | – | –
6 | C#CCNC(=O)c1cc(Nc2cc(C3CC3)[nH]n2)nc(N2CCN(Cc3ccc(S(=O)(=O)F)cc3)CC2)n1 | 6.41 | < 4.52 | 5.74 | – | 4.81 | < 4.52 | < 4.52 | 5.95 | 5.55 | < 4.52 | 6.09 | 4.81 | 5.9 | < 4.52 | 5.98 | < 4.52 | < 4.52 | < 4.52 | 6.89 | 5.15 | 5.42
